Holding throughout (assay): inhibition of tumour cell growth, NCI panel, 48 h
Experiment [1] has as its system A549.
Experiment [2] concerns EKVX.
The test system of experiment [3] is PC-3.
Experiment [4] has as its system UO-31.
For experiment [5], the system named is U-251.
Experiment [6] concerns HCT-15.
In experiment [7] the test system is HCC 2998.
Experiment [8] concerns OVCAR-4.
For experiment [9], the system named is UACC-257.
Experiment [10] deals with SK-MEL-5.
Experiment [11] deals with HOP-62.
Experiment [12] relates to OVCAR-8.
In experiment [13] the test system is TK-10.
For experiment [14], the system named is A498.
The test system of experiment [15] is OVCAR-3.
In experiment [16] the test system is K562.
Experiment [17] has as its system M14.
Experiment [18] relates to SR.
The test system of experiment [19] is RXF 393.

These results are taken from ChEMBL document CHEMBL1201862, “PubChem BioAssay data set” (2004).

SMILES strings stand for the structures.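 Interpolation was linear, between the two tested concentrations surrounding the appropriate level; five concentrations were tested over 48 hours in 96-well plates. Here, GI50 denotes the concentration required for 50% inhibition of growth.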 Activity calls are given as the source filed them. Cut-off read from the data, not from the text of the source: active = GI50 up to about 1.1 µM and inactive = higher.

On to `O=C1Nc2ccccc2C1Cc1ccccc1` (stereo not drawn), for which the GI50 in [1] was > 100 µM (inactive); in [2] it was 56.1 µM (inactive); in experiment [3] it was > 100 µM (inactive); in experiment [4], 78.5 µM (inactive); in experiment [5], > 100 µM (inactive); in experiment [6], greater than 100 µM. For the same molecule, the GI50 in experiment [7] is > 100 µM (inactive); in experiment [8] it was > 100 µM (inactive); in [9] it was > 100 µM (inactive); in [10] it was 43.6 µM (inactive); in experiment [11], > 100 µM (inactive); in experiment [12], > 100 µM (inactive). The GI50 in [13], in [14], in experiment [15], in [16], in [17] and in experiment [18] was > 100 µM (inactive) throughout.
As to `O=C1c2ccccc2C(=O)c2[nH]cnc21`, the GI50 is 55.3 µM (inactive) in [1]; 91.2 µM (inactive) in experiment [2]; > 100 µM (inactive) in experiment [19]; > 100 µM (inactive) in experiment [4]; 73.8 µM (inactive) in experiment [5]; 48.5 µM in experiment [6]. The GI50 was 48.4 µM (inactive) in [7]; 76.6 µM (inactive) in [8]; 23 µM (inactive) in experiment [9]; 18.1 µM (inactive) in [10]; > 100 µM (inactive) in [11]; 34.7 µM (inactive) in experiment [12]. Also, the GI50 in [13] was > 100 µM (inactive); in [14], > 100 µM (inactive); in experiment [15], 21.5 µM (inactive); in [16], 78.7 µM (inactive); in experiment [17], 41.4 µM (inactive); in experiment [18] it was 44 µM (inactive).
For the molecule `COc1ccc2oc(=O)c(-c3csc(C)n3)cc2c1`, the GI50 was > 100 µM (inactive) in [1]; 56.5 µM (inactive) in experiment [2]; > 100 µM (inactive) in experiment [3]; 30.5 µM (inactive) in experiment [19]; 69.2 µM (inactive) in [4]; 23 µM (inactive) in experiment [5]. The GI50 in experiment [6] is greater than 100 µM; in experiment [7], > 100 µM (inactive); in [8] it was 85.3 µM (inactive); in experiment [9], > 100 µM (inactive); in experiment [10], > 100 µM (inactive); in experiment [11], 31 µM (inactive). Further, the GI50 in experiment [13] was 26 µM (inactive); in experiment [16], > 100 µM (inactive); in [17], 75.2 µM (inactive); in experiment [18], > 100 µM (inactive).
`O=C(CC1(O)C(=O)Nc2c(Cl)cc(Cl)cc21)c1cccc2ccccc12` (stereo not drawn): the GI50 in experiment [1] is 15.1 µM (inactive); in experiment [2] it was 16 µM (inactive); in experiment [19], 20.6 µM (inactive); in experiment [5] it was 15.5 µM (inactive); in experiment [6], 16.5 µM; in experiment [8], 12.4 µM (inactive). The GI50 in [9] is 15.8 µM (inactive); in experiment [10] it was 15.2 µM (inactive); in [11] it was 16.5 µM (inactive); in [12], 18.1 µM (inactive); in [13], 14.1 µM (inactive); in [14], 21.5 µM (inactive). The GI50 is 16.1 µM (inactive) in experiment [15], 16.6 µM (inactive) in experiment [16], 16.7 µM (inactive) in experiment [17] and 16.9 µM (inactive) in experiment [18].
For the molecule `CC(C)CC(C#CCCOC(=O)c1ccccc1)OC(=O)c1ccccc1` (stereo not drawn), the GI50 in experiment [1], in [2], in [3], in [19], in experiment [4] and in [5] was > 10 µM (inactive) each time. Moreover, the GI50 in [6] is greater than 10 µM; in experiment [7], > 10 µM (inactive); in experiment [9], > 10 µM (inactive); in experiment [10] it was > 10 µM (inactive); in experiment [11], > 10 µM (inactive); in experiment [12], > 10 µM (inactive). Moreover, the GI50 in [13], in [14], in experiment [15], in [16], in experiment [17] and in [18] was > 10 µM (inactive) in each case.
As to `Cc1cc(NS(=O)(=O)c2ccc(Nc3c4ccccc4nc4c(C(=O)N5CCN(CCO)CC5)cccc34)cc2)no1`, the GI50 in experiment [1] was > 100 µM (inactive); in [2] it was > 100 µM (inactive); in experiment [19] it was 22.3 µM (inactive); in experiment [4], > 100 µM (inactive); in [5] it was > 100 µM (inactive); in [6], greater than 100 µM. For the same molecule, the GI50 in experiment [7] was 49 µM (inactive); in experiment [8] it was > 100 µM (inactive); in experiment [9], > 100 µM (inactive); in experiment [10] it was > 100 µM (inactive); in experiment [11] it was > 100 µM (inactive); in [12] it was > 100 µM (inactive). For the same molecule, the GI50 in experiment [13] is > 100 µM (inactive); in experiment [14], > 100 µM (inactive); in experiment [15], > 100 µM (inactive); in experiment [16] it was 57.8 µM (inactive); in experiment [17], > 100 µM (inactive); in experiment [18] it was 66.5 µM (inactive).
With `CCN(CC)CCOc1ccc(/C=C(\C#N)c2ccc(OCCN(CC)CC)cc2)cc1`, the GI50 in [1] was 19.1 µM (inactive); in experiment [2], > 51.2 µM (inactive); in experiment [19], 12.4 µM (inactive); in experiment [4], 14.7 µM (inactive); in experiment [5] it was 13.5 µM (inactive); in experiment [6], 14.5 µM. Moreover, the GI50 in experiment [7] was 15.7 µM (inactive); in [8], 37.3 µM (inactive); in experiment [9] it was 16.9 µM (inactive); in [10], 4.48 µM (inactive); in experiment [11] it was 10.6 µM (inactive); in experiment [12], 20.5 µM (inactive). Besides, the GI50 in experiment [13] is > 59.7 µM (inactive); in experiment [14], 16.9 µM (inactive); in [15], 22.4 µM (inactive); in experiment [16], 3.37 µM (inactive); in [17], 7.64 µM (inactive); in experiment [18], 7.89 µM (inactive).
In the case of `COc1ccc(C)cc(O)c1=O`, the GI50 in experiment [1] is > 100 µM (inactive); in experiment [2], 38.8 µM (inactive); in experiment [19], 39.7 µM (inactive); in experiment [4], 27.4 µM (inactive); in [5], 42.8 µM (inactive); in [6] it was greater than 100 µM. Moreover, the GI50 is 45 µM (inactive) in experiment [8]; 33.2 µM (inactive) in [9]; 67.8 µM (inactive) in [10]; 54.6 µM (inactive) in experiment [11]; > 100 µM (inactive) in [13]; 38.4 µM (inactive) in experiment [14]. In addition, the GI50 was 31.6 µM (inactive) in experiment [15], 45.4 µM (inactive) in [16], 21.2 µM (inactive) in [17] and 5.28 µM (inactive) in [18].
In the case of `CS(=O)(=O)c1nc(N)nc2nc[nH]c12`, the GI50 in experiment [1] is > 100 µM (inactive); in experiment [2], > 100 µM (inactive); in experiment [19] it was > 100 µM (inactive); in [4], > 100 µM (inactive); in experiment [5] it was > 100 µM (inactive); in [6], greater than 100 µM. The GI50 in experiment [7], in [8], in [9], in [10], in experiment [11] and in experiment [12] was > 100 µM (inactive) each time. Also, the GI50 in [13], in experiment [14], in experiment [15], in experiment [16], in experiment [17] and in experiment [18] was > 100 µM (inactive) each time.
As for `CO[C@]12CCC(=O)N1C=Cc1c2[nH]c2ccccc12`, the GI50 in experiment [1] is > 100 µM (inactive); in [2] it was > 100 µM (inactive); in [19], > 100 µM (inactive); in [4], > 100 µM (inactive); in [6], greater than 100 µM; in experiment [7] it was > 100 µM (inactive). Also, the GI50 in experiment [8], in [9], in experiment [10], in experiment [11], in experiment [12] and in [13] was > 100 µM (inactive) in each case. For the same molecule, the GI50 in experiment [14], in [15], in experiment [16], in experiment [17] and in experiment [18] was > 100 µM (inactive) throughout.
`Cc1nc2c(o1)/C(=N\c1ccccc1)c1nc(C)oc1/C2=N/c1ccccc1`: the GI50 in experiment [1] is 24.8 µM (inactive); in [2], > 10 µM (inactive); in experiment [19], 20.6 µM (inactive); in experiment [4] it was 17.2 µM (inactive); in experiment [5] it was 17.7 µM (inactive); in [6], 23.4 µM. In addition, the GI50 in experiment [7] was 32.4 µM (inactive); in [9], 29.6 µM (inactive); in experiment [10] it was 1.06 µM (active); in experiment [11], 13.1 µM (inactive); in experiment [12], 15.3 µM (inactive); in experiment [13] it was 32.7 µM (inactive). The GI50 in [14] is 1.29 µM (inactive); in experiment [15], 39.2 µM (inactive); in [16], 33 µM (inactive); in [17] it was 36.4 µM (inactive); in experiment [18] it was 60.5 µM (inactive).
For the molecule `CCCCCCCCCCCCCCCCOP(=O)(O)Oc1ccc(/C=C\c2ccc(OP(=O)(O)OCCCCCCCCCCCCCCCC)cc2)cc1`, the GI50 in [1] is 82.4 µM (inactive); in experiment [2] it was > 100 µM (inactive); in [19], 2.47 µM (inactive); in [4] it was > 100 µM (inactive); in [5], 34 µM (inactive); in [6], greater than 100 µM. The GI50 is > 100 µM (inactive) in [7]; 62.5 µM (inactive) in experiment [8]; > 100 µM (inactive) in experiment [9]; > 100 µM (inactive) in experiment [10]; 38.1 µM (inactive) in experiment [11]; 12.2 µM (inactive) in experiment [12]. In addition, the GI50 in [13] is 25.1 µM (inactive); in experiment [14], 83.9 µM (inactive); in experiment [15], 43.2 µM (inactive); in [16], 36.1 µM (inactive); in [17], 45.6 µM (inactive); in experiment [18] it was 30 µM (inactive).
